According to the supplement of paper PMC5844555:

Assays:
Experiment in all cases: 3' UTR reporter interaction score (median-centred robust z-score of log2 firefly/Renilla activity); higher = less repression of the 3' UTR reporter
Settings in all cases: HEK293T; 48 h
[1] = tested on: BRCA2
How it was run: (§1)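 HEK293T cells (10,000/well, 96-well plates) were co-transfected using DharmaFECT Duo with 100 ng firefly luc2P reporter carrying the gene's 3' UTR, 20 ng Renilla pRL-TK control and 2.5 pmol miRNA mimic. Dual-luciferase activities were read 48 h post-transfection. The interaction score is the log-transformed firefly/Renilla ratio as a per-plate robust z-score (median, median absolute deviation), median-centred per miRNA and averaged over at least two independent screens; more negative indicates interaction.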

[2] = tested on: EZH2
How it was run: as §1

[3] = tested on: FBXW7
How it was run: as §1

[4] = tested on: HRAS
How it was run: as §1

[5] = tested on: MYB
How it was run: as §1

[6] = tested on: MYCN
How it was run: as §1

[7] = tested on: MYC
How it was run: as §1

[8] = tested on: MYT1L
How it was run: as §1

[9] = tested on: NOTCH1
How it was run: as §1

[10] = tested on: PHF6
How it was run: as §1

[11] = tested on: PHOX2B
How it was run: as §1

[12] = tested on: RB1
How it was run: as §1

[13] = tested on: TP53
How it was run: as §1

[14] = tested on: ZEB2
How it was run: as §1

Sequence | 3' UTR reporter interaction score [1] | 3' UTR reporter interaction score [2] | 3' UTR reporter interaction score [3] | 3' UTR reporter interaction score [4] | 3' UTR reporter interaction score [5] | 3' UTR reporter interaction score [6] | 3' UTR reporter interaction score [7] | 3' UTR reporter interaction score [8] | 3' UTR reporter interaction score [9] | 3' UTR reporter interaction score [10] | 3' UTR reporter interaction score [11] | 3' UTR reporter interaction score [12] | 3' UTR reporter interaction score [13] | 3' UTR reporter interaction score [14]
AAAGUGCUUCCUUUUAGAGGGUU | -0.282 | -1.12 | 1.34 | 0.0494 | -0.903 | -0.338 | -0.227 | -0.468 | 0.779 | 0.00103 | 0.533 | 1.13 | -0.295 | 0.894
AAAGUGCUUCCUUUUUGAGGG | 0.142 | -0.296 | 0.747 | -0.00896 | -0.87 | -0.0937 | 0.0093 | -0.441 | 0.985 | -0.0231 | 1.32 | 1.02 | 0.0321 | 0.44
AACACACCUGGUUAACCUCUUU | 0.0379 | 0.419 | -0.274 | 0.473 | -0.0237 | 1.21 | -0.499 | 0.591 | -1.72 | -2.01 | 0.138 | -0.572 | 0.317 | 0.382
AACAGGUGACUGGUUAGACAA | -0.352 | 0.144 | 1.13 | 0.125 | -0.0471 | -1.32 | -1.37 | -0.793 | 1.15 | -0.792 | 2.14 | -0.637 | -0.34 | -0.428
AACAUUCAACCUGUCGGUGAGU | -1.56 | -0.0307 | 0.747 | -0.974 | 1.08 | -1.2 | -0.157 | 1.67 | 0.774 | 0.226 | 0.334 | 0.216 | -0.761 | 1.39
AACAUUCAACGCUGUCGGUGAGU | 0.243 | -0.146 | -0.842 | -0.301 | 0.057 | -0.12 | 0.478 | -0.0848 | 0.193 | -0.891 | -0.00434 | 0.404 | 0.784 | -0.18
AACAUUCAUUGUUGUCGGUGGGUU | -0.763 | -0.453 | 0.226 | -0.818 | 0.819 | -0.95 | -0.122 | 1.2 | 0.549 | 0.446 | 0.761 | 0.277 | -1.07 | 1.49
AACUGGCCCUCAAAGUCCCGCUUU | 0.335 | 0.347 | 0.0369 | 1.58 | -3.7 | -2.37 | 0.891 | -0.278 | -1.04 | -1.81 | 0.301 | 1.12 | – | 0.222
AACUGGCCUACAAAGUCCCAG | -0.135 | 0.239 | 0.16 | 1.01 | -3.25 | -2.47 | 0.942 | -0.789 | -1.05 | – | -0.335 | 0.314 | -0.0425 | 0.719
AAUCGUACAGGGUCAUCCACUU | -0.12 | 0.723 | 0.407 | 0.0979 | 0.179 | -0.121 | 0.0345 | -0.171 | 0.0951 | – | 1.36 | -0.619 | 0.0793 | 0.283
AUCACAUUGCCAGGGAUUACC | -1.56 | 0.0796 | -0.221 | -0.747 | -0.174 | 0.139 | 0.209 | 0.363 | -0.965 | 0.0907 | 0.2 | 0.534 | – | 1.1
CAAAGUGCUUACAGUGCAGGUAGU | -0.125 | -0.848 | – | 0.135 | -0.142 | -0.306 | 0.444 | -0.396 | 0.897 | -0.0772 | 0.665 | 0.713 | 0.459 | 1.15
CCUAGUAGGUGUCCAGUAAGUGU | -0.873 | -0.633 | -0.251 | -0.971 | 0.0319 | 0.245 | 0.727 | 0.0095 | 0.26 | -0.224 | 0.805 | -1.08 | -0.172 | –
GGCAAGAUGCUGGCAUAGCUG | – | -0.113 | 1.19 | 0.647 | 0.765 | 0.322 | 0.017 | -0.16 | -0.293 | -1.44 | 1.14 | 0.334 | -0.71 | 1.14
GUGAAAUGUUUAGGACCACUAG | -0.28 | -0.221 | 0.238 | -0.276 | -0.192 | -0.394 | – | 0.987 | -0.392 | 1.07 | 0.216 | -0.00504 | 0.19 | 0.105
UAAUACUGCCUGGUAAUGAUGAC | – | 0.31 | -0.751 | -0.0979 | -2.25 | -0.158 | 1.05 | 1.12 | -0.616 | 2 | -1.14 | 0.622 | -0.665 | -3.47
UACUCAGGAGAGUGGCAAUCACA | 0.435 | -0.403 | -0.521 | -0.17 | 1.48 | 0.696 | 0.13 | -0.715 | -0.379 | -1.8 | 0.756 | -0.0737 | – | 0.272
UCACUCCUCUCCUCCCGUCUUCU | -0.727 | -1.64 | -1.25 | -0.435 | 0.575 | 0.923 | – | 1.44 | 1.17 | 0.199 | -0.219 | 0.27 | -0.451 | 1.61
UGUAAACAUCCUUGACUGGA | 0.0901 | -0.145 | 0.548 | 0.642 | 0.77 | -0.313 | – | 0.512 | -0.407 | -0.821 | 0.574 | -0.17 | -0.0994 | -1.5
UUUCAAGCCAGGGGGCGUUUUUC | -0.216 | -0.378 | 1.22 | -0.232 | 0.555 | -0.0394 | 0.49 | 0.976 | -1.91 | -0.209 | -0.413 | -0.19 | 1.02 | –
